Numbers after ± are expanded uncertainties.
Details: 101 kPa, Liquid

SMILES | mass density (283.15 K) | mass density (288.15 K) | mass density (293.15 K) | mass density (298.15 K) | mass density (303.15 K) | mass density (308.15 K) | mass density (313.15 K) | mass density (318.15 K) | mass density (323.15 K) | mass density (328.15 K) | mass density (333.15 K)
CCCCO [butan-1-ol] | 817.15 ± 0.54 kg/m3 | 813.38 ± 0.54 kg/m3 | 809.59 ± 0.55 kg/m3 | 805.77 ± 0.56 kg/m3 | 801.92 ± 0.57 kg/m3 | 798.05 ± 0.58 kg/m3 | 794.14 ± 0.58 kg/m3 | 790.19 ± 0.59 kg/m3 | 786.19 ± 0.6 kg/m3 | 782.14 ± 0.61 kg/m3 | 778.03 ± 0.62 kg/m3
CCO [ethanol] | 797.96 ± 0.57 kg/m3 | 793.71 ± 0.58 kg/m3 | 789.44 ± 0.59 kg/m3 | 785.15 ± 0.6 kg/m3 | 780.83 ± 0.6 kg/m3 | 776.48 ± 0.61 kg/m3 | 772.09 ± 0.62 kg/m3 | 767.65 ± 0.63 kg/m3 | 763.17 ± 0.64 kg/m3 | 758.63 ± 0.65 kg/m3 | 754.01 ± 0.66 kg/m3
CCCCCCO [hexan-1-ol] | 827.82 ± 2.1 kg/m3 | 824.25 ± 2.1 kg/m3 | 820.65 ± 2.1 kg/m3 | 817.03 ± 2.1 kg/m3 | 813.39 ± 2.1 kg/m3 | 809.71 ± 2.1 kg/m3 | 806 ± 2.1 kg/m3 | 802.27 ± 2.1 kg/m3 | 798.49 ± 2.1 kg/m3 | 794.67 ± 2.1 kg/m3 | 790.8 ± 2.1 kg/m3
CO [methanol] | 801.08 ± 0.56 kg/m3 | 796.41 ± 0.57 kg/m3 | 791.71 ± 0.58 kg/m3 | 787.01 ± 0.59 kg/m3 | 782.29 ± 0.6 kg/m3 | 777.55 ± 0.61 kg/m3 | 772.78 ± 0.62 kg/m3 | 767.97 ± 0.63 kg/m3 | 763.12 ± 0.64 kg/m3 | 758.23 ± 0.65 kg/m3 | 753.29 ± 0.66 kg/m3
CCCCCCCCO [octan-1-ol] | 832.13 ± 0.54 kg/m3 | 828.71 ± 0.55 kg/m3 | 825.27 ± 0.56 kg/m3 | 821.81 ± 0.56 kg/m3 | 818.33 ± 0.57 kg/m3 | 814.84 ± 0.58 kg/m3 | 811.31 ± 0.58 kg/m3 | 807.76 ± 0.59 kg/m3 | 804.19 ± 0.6 kg/m3 | 800.58 ± 0.6 kg/m3 | 796.93 ± 0.61 kg/m3
CCCCCO [pentan-1-ol] | 822.42 ± 0.69 kg/m3 | 818.79 ± 0.7 kg/m3 | 815.13 ± 0.7 kg/m3 | 811.45 ± 0.71 kg/m3 | 807.74 ± 0.72 kg/m3 | 804.01 ± 0.72 kg/m3 | 800.24 ± 0.73 kg/m3 | 796.43 ± 0.73 kg/m3 | 792.57 ± 0.74 kg/m3 | 788.67 ± 0.75 kg/m3 | 784.72 ± 0.75 kg/m3
CCCO [propan-1-ol] | 811.57 ± 1.2 kg/m3 | 807.62 ± 1.2 kg/m3 | 803.63 ± 1.2 kg/m3 | 799.62 ± 1.2 kg/m3 | 795.58 ± 1.2 kg/m3 | 791.49 ± 1.2 kg/m3 | 787.37 ± 1.2 kg/m3 | 783.22 ± 1.2 kg/m3 | 779.01 ± 1.2 kg/m3 | 774.73 ± 1.2 kg/m3 | 770.39 ± 1.2 kg/m3
CC(C)O [propan-2-ol] | 793.31 ± 0.74 kg/m3 | 789.22 ± 0.75 kg/m3 | 785.08 ± 0.75 kg/m3 | 780.87 ± 0.76 kg/m3 | 776.6 ± 0.77 kg/m3 | 772.25 ± 0.77 kg/m3 | 767.81 ± 0.78 kg/m3 | 763.28 ± 0.79 kg/m3 | 758.64 ± 0.8 kg/m3 | 753.88 ± 0.8 kg/m3 | 749.01 ± 0.81 kg/m3
